Values quoted from earlier work in PMC8978187, “Feasibility, Biodistribution, and Preliminary Dosimetry in Peptide-Targeted Radionuclide Therapy of Diverse Adenocarcinomas Using ^177Lu-FAP-2286: First-in-Humans Results” (Journal of Nuclear Medicine, 2022).
Read-outs that look alike come from different tables or passages of the source.

Columns and labels:
tumor = settings: compared with ^177Lu-FAP-2286
Excerpt: In our patient cohort, FAP expression was confirmed in these malignancies on PET/CT using ^68Ga-FAP-2286 or ^68Ga-FAPI-04.

[1] = patients
Excerpt: These findings were further corroborated by dosimetric studies.

| SMILES | tumor washout and tumor retention time (tumor) | bone marrow absorbed dose [1] | effective half-life in the kidneys [1] | effective half-life in the whole body [1] | kidney absorbed dose [1] | whole-body absorbed dose [1] | kidney absorbed dose, range ([1]; range) | absorbed dose in bone metastases ([1]; reported by Kulkarni et al.) | absorbed dose in bone metastases ([1]; reported by Violet et al.) | absorbed dose in bone metastases, range ([1]; reported by Violet et al., range) |
| --- | --- | --- | --- | --- | --- | --- | --- | --- | --- | --- |
| N#C[C@@H]1CCCN1C(=O)CNC(=O)c1ccnc2ccc(OCCCN3CCN(C(=O)CN4CCN(CC(=O)O)CCN(CC(=O)O)CCN(CC(=O)O)CC4)CC3)cc12 [FAPI-02] | earlier tumor washout and a correspondingly shorter tumor retention time | – | – | – | – | – | – | – | – | – |
| N#C[C@@H]1CC(F)(F)CN1C(=O)CNC(=O)c1ccnc2ccc(OCCCN3CCN(C(=O)CN4CCN(CC(=O)O)CCN(CC(=O)O)CCN(CC(=O)O)CC4)CC3)cc12 [FAPI-04] | earlier tumor washout and a correspondingly shorter tumor retention time | – | – | – | – | – | – | – | – | – |
| O=C([O-])CN1CCN(CC(=O)[O-])CCN(CC(=O)NCC2CCC(C(=O)N[C@@H](Cc3ccc4ccccc4c3)C(=O)NCCCC[C@H](NC(=O)N[C@@H](CCC(=O)O)C(=O)O)C(=O)O)CC2)CCN(CC(=O)[O-])CC1.[177Lu+3] (some centres unmarked) [^177Lu-PSMA-617] | – | 0.03 Gy/GBq | 42 h | 40 h | 0.99 Gy/GBq | 0.04 Gy/GBq | 0.45–1.6 Gy/GBq | 2.9 Gy/GBq | 5.3 Gy/GBq | 0.4–10.7 Gy/GBq |
